Earlier results in patent publication US20140271816A1, “TREATMENT OF POTENTIAL PLATELET AGGREGATION WITH LIPOSOMALLY FORMULATED GLUTATHIONE AND CLOPIDOGREL” (priority 2013, published 2014).
Where two headings read alike, the source gives them in different places.

Tests used:
[1] = rat; for toxin remaining: Co-60 in liver
[2] = humans, plain non-formulated glutathione
[3] = oral, 75 mg clopidogrel (base)

Question: Which “activity in forming the AM relative to GSH” value (percent of the activity of GSH) does the source give for `CC(=O)N[C@@H](CS)C(=O)O` [NAC, N-Acetyl cysteine] here?
Answer: less than 10%

Question: Which “rank as reducing agent needed to form the active metabolites of clopidogrel” value (ex vivo studies) does the source give for `N[C@@H](CCC(=O)N[C@@H](CS)C(=O)NCC(=O)O)C(=O)O` [Plain glutathione, reduced glutathione] here?
Answer: best reducing agent

Question: What about the toxin remaining ([1]; intravenous administration) of the same compound?
Answer: 36%

Question: What about the toxin remaining ([1]; oral administration) of the same compound?
Answer: 100%

Question: And the “removal of toxin / radiotagged marker (Co-60) from the liver” value (shortened to “removal of toxin / radiotagged marker”) ([1]; intravenous administration)?
Answer: 64%

Question: What about the “removal of toxin / radiotagged marker” value ([1]; oral administration) of the same compound?
Answer: 0%

Question: What about the “removal of toxin / radiotagged marker” value ([1]; oral administration, listed as plain GSH) of the same compound?
Answer: no function

Question: What about the “absorption after oral administration” value ([2]; listed as glutathione) of the same compound?
Answer: not absorbed well

Question: What about the “absorption after oral administration” value ([2]; listed as plain GSH) of the same compound?
Answer: not absorbed

Question: And the “absorption after oral administration” value ([2]; listed as plain glutathione)?
Answer: not absorbed

Question: For `COC(=O)[C@H](c1ccccc1Cl)N1CCc2sccc2C1` [Clopidogrel, clopidogrel], which “peak plasma levels of the main circulating metabolite” value [3] is on record?
Answer: approx. 3 mg/L

Question: What about the “time of peak plasma levels after dosing” value ([3]; main circulating metabolite) of the same compound?
Answer: approximately one
